One molecule from US12042481B2, “Use of (1R,5S)-(+)-1-(naphthalen-2-yl)-3-azabicyclo[3.1.0]hexane in the treatment of conditions affected by monoamine neurotransmitters” (priority 2011, dated 2024) can be followed below.

The IC50 is the concentration that inhibits the measured activity by half.

Structures are written as SMILES. Entries after “also recorded” stand apart in the source; their conditions may differ.

Assay [1] deals with T1, recombinant human DA transporter (Homo sapiens, UniProt Q01959).
T1 construct: host or cells: CHO-K1
The assay can be described thus: Inhibition of [3H]dopamine uptake in CHO-K1 cells transfected with the DA uptake transporter. It is filed as cell-based. How it is done:
The ability of (1R,5S)-(+)-1-(naphthalen-2-yl)-3-azabicyclo[3.1.0]hexane for inhibiting transport of norepinephrine (NE) and/or dopamine (DA) and/or serotonin (5-HT) was evaluated using cell lines (such as the HEK 293 cell line) that stably express recombinant human NE, DA, and 5-HT transporters, respectively. Techniques for stably transfecting mammalian cell lines with neurotransmitter transporters and measuring the effects of drugs on amine uptake have been described in the literature (e.g., Eshleman A J, J Pharmacol Exp Ther 289:877-885, 1999) and are well known to those skilled in the art
Monoamine uptake was determined in MDCK, CHO-K1, and HEK-293 cell lines respectively transfected with NE, DA, and 5-HT uptake transporters by MDS Pharma Services (Taipei, Taiwan 112, R. O. C.). The cells were incubated in 5 mM Tris-HCl, and 7.5 mM HEPES buffer, pH 7.1, containing 120 mM NaCl, 5.4 mM KCl, 1.2 mM CaCl2, 1.2 mM MgSO4, 5 mM D-glucose, and 1 mM Ascorbic Acid. The cellular homogenates were incubated with radioligands and various concentrations of drugs for 10 minutes at 25° C. The [^3H]-radioligands incorporated into the cells were determined according to published methods using liquid scintillation counting (Perovic and Müller 1995; Eshleman et al., 1999). […]

The subject of another assay is rats. The assay can be described thus: Forced swim test in rats. Particulars: 40 mg/kg p.o., data not shown. The format is in vivo, rat.
Assay [2] has as its system male CD-1 (Crl.) derived mice. The experiment in a line: Mouse spontaneous locomotor activity. It is filed as in vivo. How it is done: For the locomotor activity determination, male CD-1 (Crl.) derived mice were orally administered (1R,5S)-(+)-1-(naphthalen-2-yl)-3-azabicyclo[3.1.0]hexane as described in Example IV. Locomotor activity for mice in groups of 10 was assessed by placing mice individually into custom built chambers in a quiet isolated 22° C. room (conducted by MDS Pharma Services, Taipei, Taiwan 112, R. O. C.). At 15-minute intervals over 2 hours post-dosing, total travel distances (in cm) for individual animals were recorded using the Etho Vision Pro System (Noldus, USA).

T1 sequence (Q01959 whole entry): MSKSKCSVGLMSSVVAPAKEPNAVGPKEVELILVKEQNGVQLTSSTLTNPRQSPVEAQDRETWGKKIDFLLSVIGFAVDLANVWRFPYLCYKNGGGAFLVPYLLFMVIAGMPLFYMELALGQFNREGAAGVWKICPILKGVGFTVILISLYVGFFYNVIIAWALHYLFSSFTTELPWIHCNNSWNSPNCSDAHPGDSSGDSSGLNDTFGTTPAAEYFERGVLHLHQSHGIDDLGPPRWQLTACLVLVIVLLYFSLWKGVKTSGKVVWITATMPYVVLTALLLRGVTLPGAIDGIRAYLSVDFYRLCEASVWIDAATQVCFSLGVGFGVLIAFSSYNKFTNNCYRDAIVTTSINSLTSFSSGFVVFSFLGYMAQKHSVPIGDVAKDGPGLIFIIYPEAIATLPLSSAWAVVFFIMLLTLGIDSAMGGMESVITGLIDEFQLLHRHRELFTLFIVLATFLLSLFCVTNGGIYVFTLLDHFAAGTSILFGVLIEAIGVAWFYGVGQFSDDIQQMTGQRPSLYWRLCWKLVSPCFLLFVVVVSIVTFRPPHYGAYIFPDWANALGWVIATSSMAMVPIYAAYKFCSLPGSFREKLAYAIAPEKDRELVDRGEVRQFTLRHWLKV

On to `c1ccc2cc([C@]34CNC[C@H]3C4)ccc2c1` [(1R,5S)-(+)-1-(naphthalen-2-yl)-3-azabicyclo[3.1.0]hexane], for which the IC50 in assay [1] amounted to 38 nM. For the same molecule, the “immobility in the forced swim test” value with rats is recorded as “reduced immobility”. For the same molecule, in assay [2] (20, 40 mg/kg p.o., 15 minute epochs, p<0.05 versus vehicle), the “locomotor activity (FIG. 5)” value was “decreased locomotor activity at several time points”. For the same molecule, the spontaneous locomotor activity result in assay [2] (oral, distance traveled at 15-minute intervals over 2 hours) is reported as “did not significantly increase; also recorded: significantly decrease locomotor activity at several time points”.
